From US7056491B2, “Monoterpenes and sesquiterpenes as chemotherapeutic and radiation sensitizers and immunomodulators” (Wisconsin Alumni Research Foundation, priority 2000, dated 2006)

Legend:
[1] = tested on: 21–26 kD proteins, including small GTP-binding proteins; details: dose dependent, distal to HMG-CoA reductase; cited from earlier work
[2] = tested on: HT29 colon cancer cells; assay: Clonogenic survival assay, POH with or without radiation, HT29; type: cell-based, human
Protocol: (§1) Table 1 summarizing data from different cell lines treated with radiation, radiation plus POH, and POH alone. Subconfluent cultures of human glioma (T98G, M059K, U251), prostate (DU145, PC3), colon (DLD-1, HT29) and pancreatic (MIAPACA) cancer cell lines were treated with 0.1–0.5 mM of POH for 72 hours and subsequently to increasing doses of radiation from 0.1 Gy to 8.5 Gy. Control cells were treated with medium alone. The cells were harvested and an optimum number of cells were allowed to grow for 14 days. The resulting colonies were stained and counted. Each graphed point represents mean values ± SE values of triplicate dishes. Percentage survival was determined as the ratio of plating efficiencies for each irradiated group to that of the unirradiated control.

[3] = tested on: glioma and prostate cancer cell lines; assay: Apoptosis by dual colored (PI and Annexin V) flow cytometry; type: cell-based, human; details: 1 mM POH, 72 hours
Protocol: Glioma (T98G, U251, U353, U87 and MO59K) and prostate (DU145, PC3) cell lines were treated with or without 1 mM perillyl alcohol (POH) for 72 hours. The cells were harvested by trypsinization washed with PBS and subsequently staimed with antibody to annexin V conjugated to FITC and with PI (10 μg/ml). Viable (annexin V^−/PI^−) pre-apoptotic (annexin V^+/PI^−), apoptotic (annexin V^+/PI^+), and the residual damaged (annexin V^−/PI^+) cells were quantitated using this protocol.

[4] = tested on: PC3 prostate cancer cells; assay: Clonogenic survival assay, POH with or without radiation, PC3; type: cell-based, human
Protocol: FIGS. 2–14 illustrates additional work with other monoterpenes and cell lines. […] Subconfluent cultures prostate cancer cell line PC3 were treated with 0.1–0.5 mM of POH for 72 hours and subsequently to increasing doses of radiation from 0.1 Gy to 8.5 Gy. Control cells were treated with the indicated doses of radiation alone. The cells were harvested and an optimum number of cells were allowed to growth for 14 days. The resulting colonies were stained and counted. Each graphed point represents mean values ± SE values of triplicate dishes.
as §1

[5] = tested on: pancreatic carcinoma; details: POH-fed hamsters; control animals showed tumor growth; cited from earlier work
[6] = tested on: MIAPACA pancreatic cancer cells; assay: Clonogenic survival assay, POH with or without radiation, MIAPACA; type: cell-based, human
Protocol: as §1

[7] = tested on: U251 cells; assay: Clonogenic survival assay, POH with or without radiation, U251; type: cell-based, human
Protocol: Subconfluent cultures of human glioma cell line U251 were treated with 0.1–0.5 mM of POH for 72 hours and subsequently to increasing doses of radiation from 0.1 Gy to 8.5 Gy. Control cells were treated with the indicated doses of radiation alone. The cells were harvested and an optimum number of cells were allowed to grow for 14 days. The resulting colonies were stained and counted. Each graphed point represents mean values ± SE values of triplicate dishes.
as §1

[8] = tested on: T98G cells; assay: Clonogenic survival assay, POH with or without radiation, T98G; type: cell-based, human
Description: Cell Line: The T98G cell line was derived from a resection specimen obtained from a patient with glioblastoma multiforme. T98G cells express endogenous mutant p53 and introduction of wild-type p53 sensitizes these cells to radiation. The radioresistance of this cell line has also been attributed to the presence of high intracellular levels of GSH, which down-regulates NFκB binding activity after exposure to ionizing radiation. A clonogenic survival assay was used to assess the response to treatment in vitro, as it is a measure of reproductive capacity.
Clonogenic Survival Assays: The T98G cell line was obtained from ATCC and maintained in DMEM-F12 medium containing 10% fetal bovine serum, 1% penicillin, streptomycin and 1 mM non-essential amino acids in a humidified incubator at 37° C. Stock solution of POH was made in the medium. One set of plates was treated with graded doses of POH (0.1 mM to 1 mM) for a period of 72 hours. Control dishes were treated with medium alone. All cells were irradiated at a dose rate of 7.5Gy/min using a CS-137 irradiator with single doses ranging from 1 Gy to 8.5Gy. The range of radiation doses used encompasses that used to treat patients.
Following irradiation, both POH treated and untreated cells were harvested by trypsinization and washed with PBS. Cells were incubated for two weeks after initial plating, fixed with methanol, stained with crystal violet and the number of colonies per dish quantitated. Survival was determined as the ratio of plating efficiencies for each irradiated group to that of the unirradiated control.
Subconfluent cultures of human glioma cell line T98G were treated with 0.1–0.5 mM of Perillyl Alcohol for 72 hours and subsequently to increasing doses of radiation from 0.1 Gy to 8.5 Gy. Control cells were treated with medium alone. The cells were harvested and an optimum number of cells were allowed to grow for 14 days. The resulting colonies were stained and counted. Each graphed point represents mean values ± SE values of triplicate dishes.
as §1

[9] = tested on: DU145 prostate cancer cells; assay: Clonogenic survival assay, POH with or without radiation, DU145; type: cell-based, human
Protocol: Subconfluent cultures of prostate cancer cell line DU145 were treated with 0.1–0.5 mM of POH for 72 hours and subsequently to increasing doses of radiation from 0.1 Gy to 8.5 Gy. Control cells were treated with the indicated doses of radiation alone. The cells were harvested and an optimum number of cells were allowed to grow for 14 days. The resulting colonies were stained and counted. Each graphed point represents mean values ± SE values of triplicate dishes.
as §1

## C=C(C)[C@@H]1CC=C(CO)CC1 [POH, Perillyl alcohol]
[1]
  isoprenylation of 21–26 kD proteins: inhibit isoprenylation
[2]; 0.1 mM POH 72 h, no radiation
  % SURVIVAL: 1.060 ± 0.090%
[2]; 0.1 mM POH + 5.5 Gy
  % SURVIVAL: 0.050 ± 0.005%
[2]; 0.3 mM POH 72 h, no radiation
  % SURVIVAL: 0.714 ± 0.030%
[2]; 0.3 mM POH + 5.5 Gy
  % SURVIVAL: 0.034 ± 0.003%
[2]; 0.5 mM POH 72 h, no radiation
  % SURVIVAL: 0.400 ± 0.010%
[2]; 0.5 mM POH + 5.5 Gy
  % SURVIVAL: 0.006 ± 0.002%
[3]
  early and late apoptotic cells (annexin V/PI): increase in the percentage of early as well as late apoptotic cells
[4]; 0.1 mM POH 72 h, no radiation
  % SURVIVAL: 0.734 ± 0.038%
[4]; 0.1 mM POH + 5.5 Gy
  % SURVIVAL: 0.007 ± 0.0009%
[4]; 0.3 mM POH 72 h, no radiation
  % SURVIVAL: 0.366 ± 0.017%
[4]; 0.3 mM POH + 5.5 Gy
  % SURVIVAL: 0.003 ± 0.0058%
[4]; 0.5 mM POH 72 h, no radiation
  % SURVIVAL: 0.244 ± 0.009%
[4]; 0.5 mM POH + 5.5 Gy
  % SURVIVAL: 0.001 ± 0.00067%
[5]
  antitumor effect in pancreatic carcinoma models: either regression or no growth of the tumors
[6]; 0.1 mM POH 72 h, no radiation
  % SURVIVAL: 1.503 ± 0.05%
[6]; 0.1 mM POH + 5.5 Gy
  % SURVIVAL: 0.154 ± 0.018%
[6]; 0.3 mM POH 72 h, no radiation
  % SURVIVAL: 0.750 ± 0.05%
[6]; 0.3 mM POH + 5.5 Gy
  % SURVIVAL: 0.059 ± 0.008%
[6]; 0.5 mM POH 72 h, no radiation
  % SURVIVAL: 0.450 ± 0.07%
[6]; 0.5 mM POH + 5.5 Gy
  % SURVIVAL: 0.015 ± 0.0027%
[7]; 0.1 mM POH 72 h, no radiation
  % SURVIVAL: 1.066 ± 0.200%
[7]; 0.1 mM POH + 5.5 Gy
  % SURVIVAL: 0.253 ± 0.004%
[7]; 0.3 mM POH 72 h, no radiation
  % SURVIVAL: 0.397 ± 0.059%
[7]; 0.3 mM POH + 5.5 Gy
  % SURVIVAL: 0.046 ± 0.005%
[7]; 0.5 mM POH 72 h, no radiation
  % SURVIVAL: 0.257 ± 0.010%
[7]; 0.5 mM POH + 5.5 Gy
  % SURVIVAL: 0.019 ± 0.001%
[8]
  concentration with the most pronounced radiosensitization: 0.5 mM
  lowest concentration at which radiosensitization was observed: 0.1 mM
[8]; 0.1 mM POH 72 h, no radiation
  % SURVIVAL: 0.755 ± 0.016%
[8]; 0.1 mM POH + 5.5 Gy
  % SURVIVAL: 0.130 ± 0.002%
[8]; 0.3 mM POH 72 h, no radiation
  % SURVIVAL: 0.660 ± 0.024%
[8]; 0.3 mM POH + 5.5 Gy
  % SURVIVAL: 0.066 ± 0.004%
[8]; 0.5 mM POH 72 h, no radiation
  % SURVIVAL: 0.500 ± 0.006%
[8]; 0.5 mM POH + 5.5 Gy
  % SURVIVAL: 0.037 ± 0.014%
[8]; pretreatment before and during irradiation
  sensitization to radiation induced cell death: dose dependent sensitization
[9]; 0.1 mM POH 72 h, no radiation
  % SURVIVAL: 0.648 ± 0.008%
[9]; 0.1 mM POH + 5.5 Gy
  % SURVIVAL: 0.044 ± 0.00157%
[9]; 0.3 mM POH 72 h, no radiation
  % SURVIVAL: 0.456 ± 0.0112%
[9]; 0.3 mM POH + 5.5 Gy
  % SURVIVAL: 0.026 ± 0.00076%
[9]; 0.5 mM POH 72 h, no radiation
  % SURVIVAL: 0.207 ± 0.005%
[9]; 0.5 mM POH + 5.5 Gy
  % SURVIVAL: 0.017 ± 0.005%
